Results from patent US12533310B2, “Fragrance or flavor composition” (Takasago International Corporation, priority 2019, dated 2026).

Legend:
[1] = tested on: cells not engineered to express the olfactory receptors; experiment: Mock test of the luciferase reporter gene assay; type: cell-based, human
Protocol: (§1) Each human olfactory receptor gene expression vector (0.05 μg), RTP1S vector (0.01 μg), firefly luciferase vector pGL4.29 containing a cAMP response element promoter (Promega, 0.01 μg) and Renilla luciferase vector pGL4.74 containing a thymidine kinase promoter (Promega, 0.005 μg) were dissolved in 10 μL of Opti-MEMI (gibco) to give a gene solution (for one well). HEK293T cells were seeded in 100 μL volumes into 96-well plates (Biocoat, Corning) at a cell density reaching confluence after 24 hours, and the gene solutions were added to the respective wells to cause gene transfer into the cells by lipofection techniques in accordance with the usage of Lipofectamine 3000, followed by culture at 37° C. under a 5% carbon dioxide atmosphere for 24 hours.
(§2) After removal of the culture solutions, an odorous substance serving as an analyte, which had been prepared at a given concentration with CD293 (gibco) medium (supplemented with […] L-glutamine), was added in 50 μL volumes to stimulate the cells for 3 hours, followed by luciferase activity measurement in accordance with the usage of a Dual-Luciferase Reporter Assay System (Promega). The response intensity of each olfactory receptor polypeptide was expressed as a fold increase value, which was determined by dividing the luciferase activity generated upon stimulation with the odorous substance by the luciferase activity generated in a test system not containing the odorous substance.
(§3) The cells engineered to express human olfactory receptors OR2C1 and OR4Q3 were used to measure the response of these receptors to various concentrations of 1-octen-3-one by the luciferase reporter gene assay.

[2] = molecular target: T1, human olfactory receptor OR4Q3 (Homo sapiens, UniProt Q8NH05); experiment: Luciferase reporter gene assay, response of OR4Q3 to odorous substances; type: cell-based; conditions: various concentrations; cells stimulated 3 hours; FIGS. 2, 4, 5, 6
T1 construct: N-terminal 20 amino acid residues of bovine rhodopsin (Rho tag); expressed in transfected cells; host or cells: HEK293T
T1 sequence (Q8NH05 1-313): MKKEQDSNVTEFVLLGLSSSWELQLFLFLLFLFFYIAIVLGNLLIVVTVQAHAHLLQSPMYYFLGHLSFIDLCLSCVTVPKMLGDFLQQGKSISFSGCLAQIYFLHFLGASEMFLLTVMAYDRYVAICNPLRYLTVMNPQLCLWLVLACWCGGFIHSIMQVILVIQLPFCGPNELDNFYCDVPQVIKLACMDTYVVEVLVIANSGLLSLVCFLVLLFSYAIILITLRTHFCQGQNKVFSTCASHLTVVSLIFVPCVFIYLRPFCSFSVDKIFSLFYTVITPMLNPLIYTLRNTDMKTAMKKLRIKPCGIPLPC
Protocol: Human olfactory receptor genes were obtained by PCR cloning with Human Genomic DNA: Female (Promega) on the basis of their sequence information registered in GenBank. Into pME18S vectors, the N-terminal 20 amino acid residues of bovine rhodopsin were integrated and the resulting human olfactory receptor genes were integrated respectively downstream thereof to obtain human olfactory receptor gene expression vectors.
as §1, §2, §3
According to the same procedure as shown in Example 1, the cells engineered to express human olfactory receptors OR2C1 and OR4Q3 were used to measure the response of these receptors to various concentrations of 1,5-octadien-3-one by the luciferase reporter gene assay.
According to the same procedure as shown in Example 1, the cells engineered to express human olfactory receptor OR4Q3 were used to measure the response of this receptor to various concentrations of 1-octen-3-ol by the luciferase reporter gene assay. […]

[3] = molecular target: T2, human olfactory receptor OR2C1 (Homo sapiens, UniProt O95371); experiment: Luciferase reporter gene assay, response of OR2C1 to odorous substances; type: cell-based; conditions: various concentrations; cells stimulated 3 hours; FIGS. 1 and 3
T2 construct: N-terminal 20 amino acid residues of bovine rhodopsin (Rho tag); expressed in transfected cells; host or cells: HEK293T
T2 sequence (O95371 1-312): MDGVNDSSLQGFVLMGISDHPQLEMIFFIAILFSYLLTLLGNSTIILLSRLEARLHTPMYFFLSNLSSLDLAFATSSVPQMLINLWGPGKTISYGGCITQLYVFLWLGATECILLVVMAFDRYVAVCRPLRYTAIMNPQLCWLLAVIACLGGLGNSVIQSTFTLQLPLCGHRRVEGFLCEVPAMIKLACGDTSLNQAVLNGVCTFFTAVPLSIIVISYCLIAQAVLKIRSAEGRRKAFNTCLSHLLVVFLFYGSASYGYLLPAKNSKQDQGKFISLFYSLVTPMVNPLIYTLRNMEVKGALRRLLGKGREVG
Excerpt: Human olfactory receptor genes were obtained by PCR cloning with Human Genomic DNA: Female (Promega) on the basis of their sequence information registered in GenBank. Into pME18S vectors, the N-terminal 20 amino acid residues of bovine rhodopsin were integrated and the resulting human olfactory receptor genes were integrated respectively downstream thereof to obtain human olfactory receptor gene expression vectors. […]
as §2, with “substance. […]” for “substance.”

[4] = Sensory testing of offensive odor intensity, single offensive odors (Example 7); set-up: species or system human; conditions: for Offensive odor intensity 1,5-Octadien-3-ol: 1,5-octadien-3-ol diluted 100-fold with triethyl citrate; for Offensive odor intensity 1,5-Octadien-3-ol / Offensive odor intensity 1,5-Octadien-3-one / Offensive odor intensity 1-Octen-3-ol / Offensive odor intensity 1-Octen-3-one / Offensive odor intensity Trans-2-nonenal / Offensive odor intensity Trans-2-octenal: 10 μl, test substance 1 μl, odor alone set to 8, scale 0 to 10, mean of 10 panelists; for Offensive odor intensity 1,5-Octadien-3-one: 1,5-octadien-3-one diluted 1000-fold with triethyl citrate; for Offensive odor intensity 1-Octen-3-ol: 1-octen-3-ol diluted 100-fold with triethyl citrate; for Offensive odor intensity 1-Octen-3-one: 1-octen-3-one diluted 100-fold with triethyl citrate; for Offensive odor intensity Trans-2-nonenal: trans-2-nonenal diluted 1000-fold with triethyl citrate; for Offensive odor intensity Trans-2-octenal: trans-2-octenal diluted 1000-fold with triethyl citrate; for suppressive effect on offensive odors (each offensive odor of Example 7): summary in words for all six offensive odors
Excerpt: Test substances having inhibitory activity on receptor activity were confirmed for their ability to suppress offensive odors by sensory testing. As offensive odors, trans-2-nonenal diluted 1000-fold with triethyl citrate, trans-2-octenal diluted 1000-fold with triethyl citrate, 1-octen-3-one diluted 100-fold with triethyl citrate, 1,5-octadien-3-one diluted 1000-fold with triethyl citrate, 1-octen-3-ol diluted 100-fold with triethyl citrate, and 1,5-octadien-3-ol diluted 100-fold with triethyl citrate were each added dropwise separately in a volume of 10 μl and a test substance was added dropwise in a volume of 1 μl to a cotton ball, which was then enclosed in a plastic bottle (OZO-40, Takemoto Yohki Co., Ltd., Japan). Each bottle was allowed to stand for 1 hour at room temperature to fully volatilize odor molecules in the bottle. Sensory testing was made by 10 panelists assuming that the odor intensity was set to 8 for each offensive odor when added dropwise alone, whereby the offensive odor intensity when a test substance was mixed was evaluated between 0 and 10. The resulting numerical values were used to calculate their mean value.

[5] = Sensory testing of offensive odor intensity, model odors (Example 8); set-up: species or system human
Protocol: These fragrance compositions 1 to 48 were confirmed for their ability to suppress offensive odors by sensory testing. As offensive odors, the model age-related body odor, the model underarm odor and the model musty odor indicated in Tables 8 to 10 below were each diluted 100-fold and added dropwise separately in a volume of […] and fragrance compositions 1 to 48 were each added dropwise separately in a volume of 1 μl as a test substance to a cotton ball, which was then enclosed in a plastic bottle (OZO-40, Takemoto Yohki Co., Ltd., Japan). Each bottle was allowed to stand for 1 hour at room temperature to fully volatilize odor molecules in the bottle. Sensory testing was made by 10 panelists assuming that the odor intensity was set to 8 for each offensive odor when added dropwise alone, whereby the offensive odor intensity when a test substance was mixed was evaluated between 0 and 10. The resulting numerical values were used to calculate their mean value.

OR2C1 = molecular target: T3, OR2C1 (Homo sapiens, UniProt O95371); experiment: Suppressive effect of offensive odor-suppressing materials on the response of OR2C1; type: cell-based; conditions: for suppressive effect on the response of OR2C1 to 1-octen-3-one: mixed at various concentrations with 30 μM 1-octen-3-one, response without material set to 100, FIGS. 7 and 8; for suppressive effect on the response of OR2C1 to trans-2-nonenal: mixed at various concentrations with 60 μM trans-2-nonenal, FIGS. 9 and 10; for suppressing the response of OR2C1: odorous substance not stated
T3 construct: N-terminal 20 amino acid residues of bovine rhodopsin (Rho tag); expressed in transfected cells; host or cells: HEK293T
T3 sequence (O95371 1-312): T2 sequence (O95371 1-312)
Protocol: as §2
According to the same procedure as shown in Example 1, offensive odor-suppressing materials 2-methyl-4-(2,2,3-trimethylcyclopent-3-enyl)but-2-en-1-ol (also known as 2-methyl-4-(2,2,3-trimethyl-3-cyclopentenyl)-2-buten-1-ol) (Hindinol®) and 1-(2,2,6-trimethylcyclohexyl)hexan-3-ol (Dextramber®) were each mixed at various concentrations with 30 μM 1-octen-3-one, and the cells engineered to express OR2C1 were used to measure the response of this receptor to 1-octen-3-one. The ratio of the fold increase value obtained in the test using the offensive odor-suppressing materials was determined assuming that the fold increase value obtained in the test without mixing the offensive odor-suppressing materials was set to 100.
According to the same procedure as shown in Example 5, offensive odor-suppressing materials 2-methyl-4-(2,2,3-trimethylcyclopent-3-enyl)but-2-en-1-ol (Hindinol®) and 1-(2,2,6-trimethylcyclohexyl)hexan-3-ol (Dextramber®) were each mixed at various concentrations with 60 μM trans-2-nonenal, and the cells engineered to express OR2C1 were used to measure the response of this receptor to trans-2-nonenal.

Compound | response in Mock test [1] | response of olfactory receptor OR4Q3 to the odorous substance (fold increase value) [2] | Offensive odor intensity 1,5-Octadien-3-ol [4] | Offensive odor intensity 1,5-Octadien-3-one [4] | Offensive odor intensity 1-Octen-3-ol [4] | Offensive odor intensity 1-Octen-3-one [4] | Offensive odor intensity Trans-2-nonenal [4] | Offensive odor intensity Trans-2-octenal [4] | further results
C=CC(O)CC=CCC (stereo not drawn) [1,5-octadien-3-ol] | no response was observed in a Mock test | respond to 1,5-octadien-3-ol in a concentration-dependent manner | – | – | – | – | – | – | –
C=CC(=O)CC=CCC [1,5-octadien-3-one] | no response was observed in a Mock test | respond to 1,5-octadien-3-one in a concentration-dependent manner | – | – | – | – | – | – | response of olfactory receptor OR2C1 to the odorous substance (fold increase value) [3]: respond to 1,5-octadien-3-one in a concentration-dependent manner
C=CC(O)CCCCC (stereo not drawn) [1-octen-3-ol] | no response was observed in a Mock test | respond to 1-octen-3-ol in a concentration-dependent manner | – | – | – | – | – | – | –
C=CC(=O)CCCCC [1-octen-3-one] | no response was observed in a Mock test | respond to 1-octen-3-one in a concentration-dependent manner | – | – | – | – | – | – | response of olfactory receptor OR2C1 to the odorous substance (fold increase value) [3]: respond to 1-octen-3-one in a concentration-dependent manner
O=C(OCc1ccccc1)c1ccccc1O [Benzyl salicylate, reference compound] | – | – | 6.5 | 7.8 | 7.0 | 7.5 | 7.9 | 7.5 | –
CCCC(O)CCC1C(C)CCCC1(C)C (stereo not drawn) [Dextramber, 1-(2,2,6-trimethylcyclohexyl)hexan-3-ol] | – | – | 1.9 | 2.6 | 2.0 | 2.3 | 2.8 | 2.2 | suppressive effect on offensive odors (each offensive odor of Example 7) [4]: found to suppress each offensive odor; suppressive effect on offensive odors (each model odor of Example 8) ([5]; summary in words for the model odors): found to suppress each offensive odor; suppressive effect on the response of OR2C1 to 1-octen-3-one (OR2C1): reducing the response of OR2C1 to 1-octen-3-one in a concentration-dependent manner; suppressive effect on the response of OR2C1 to trans-2-nonenal (OR2C1): reducing the response of OR2C1 to trans-2-nonenal in a concentration-dependent manner; suppressing the response of OR2C1 (OR2C1): suppressing the response of OR2C1
CC(=CCC1CC=C(C)C1(C)C)CO (stereo not drawn) [Hindinol, 2-methyl-4-(2,2,3-trimethylcyclopent-3-enyl)but-2-en-1-ol] | – | – | – | – | – | – | – | – | Offensive odor intensity Model age-related body odor ([5]; model odor of Table 8 diluted 100-fold, fragrance composition 1 μl, odor alone set to 8, scale 0 to 10, mean of 10 panelists): suppress the intensity of the model age-related body odor and the model underarm odor; Offensive odor intensity Model underarm odor ([5]; model odor of Table 9 diluted 100-fold, fragrance composition 1 μl, odor alone set to 8, scale 0 to 10, mean of 10 panelists): suppress the intensity of the model age-related body odor and the model underarm odor; suppressive effect on the response of OR2C1 to 1-octen-3-one (OR2C1): reducing the response of OR2C1 to 1-octen-3-one in a concentration-dependent manner; suppressive effect on the response of OR2C1 to trans-2-nonenal (OR2C1): reducing the response of OR2C1 to trans-2-nonenal in a concentration-dependent manner
O=C1CCCCCCCCCCCC(=O)OCCO1 [MUSK T, 1,4-dioxacycloheptadecane-5,17-dione] | – | – | 3.0 | 3.2 | 3.2 | 2.8 | 2.9 | 2.9 | suppressive effect on offensive odors (each offensive odor of Example 7) [4]: found to suppress each offensive odor; suppressing the response of OR2C1 (OR2C1): suppressing the response of OR2C1
